According to patent US20210145965A1, “METHOD OF USING CHECKPOINT KINASE INHIBITOR THERAPY TO MODULATE ANTI-TUMORAL RESPONSE AGAINST CANCER AND SENSITIZE GLIOMAS TO IMMUNOTHERAPY” (NORTHWESTERN UNIVERSITY, priority 2019, published 2021):

Columns and labels:
[1] = test system: GL261 cells; experiment: Percent viability of GL261 cells treated with TMZ or iCHEK1/2; assay type: cell-based, mouse
[2] = test system: GL261 cells; experiment: Expression of MHC-I and PDL1 in GL261 cells; assay type: cell-based, mouse; conditions: 8 nM, 3 cycles (48 h/cycle), compared to TMZ or untreated
[3] = test system: GL261 intracranial gliomas; experiment: PD1+ T cells in brain and spleen of GL261 intracranial tumor bearing mice by flow cytometry; assay type: in vivo, C57BL/6 mice; conditions: 10 mg/kg i.p. on 7th and 9th day, sacrificed on 13th day
[4] = test system: GL261 cells; experiment: Western blot of DNA damage in GL261 cells; assay type: cell-based, mouse; conditions: 8 nM, 48 h of treatment, compared to TMZ or untreated GL261 cells

Structure (SMILES)	concentration leading to a decrease in viability of glioma cells ([1]; treatment for 72 h) [µM]	expression of MHC-I (both MHC class and PDL1) [2]	concentration at which viability of the GL261 cells started to be affected [1]	activated T-cells pool in the peripheral compartment (spleen) [3]	percentage of PD1+ T cells in the brain ([3]; compared to TMZ or vehicle)	DNA damage signal (western blot) [4]
Cn1nnc2c(C(N)=O)ncn2c1=O [TMZ, temozolomide]	500	–	–	–	–	–
COc1cccc(OCCCN)c1-c1cc(Nc2cnc(C#N)cn2)n[nH]1 [iCHEK1/2, Prexasertib]	–	increased expression of MHC-I	less than 0.08 nM	no significant difference	decrease in the percentage of PD1+ T cells	intense signal of DNA damage
